In US20230330080A1, “THERAPEUTIC TREATMENT USING PROTEIN KINASE C (PKC) INHIBITORS AND CYTOTOXIC AGENTS” (Cambridge Enterprise Limited, priority 2020, published 2023):

How the values were obtained:
Format in all cases: cell-based, human
[1] = system: CLL patient cells co-cultured with wild-type bone marrow derived stroma cells; experiment: 1-hour PKC inhibitor pre-treatment with washout before cytotoxic agent; viability of CLL/stroma co-cultures by Annexin-V-FITC and DAPI flow cytometry
Protocol: (§1) Approximately 20,000 wild-type bone marrow derived stroma cells were seeded into tissue culture wells and subsequently co-cultured with approximately 200,000 CLL patient cells. 24 hours thereafter, co-cultures were treated with 5 μM Enzastaurin for 1 hour at the indicated time-points prior to treatment with Fludarabine or Venetoclax (FIGS. 1A and 2A). Equivalent PKC-β-inhibitor exposure was maintained through removal and subsequent washout of Enzastaurin-treated co-cultures. Co-cultures were centrifuged at 500 g for 5 minutes, prior to removal of Enzastaurin containing media. Washout with cell culture media, was followed by an additional centrifugation at 500 g for 5 minutes, and the replacement of washout media with fresh media. Respective co-cultures were subsequently treated with either Fludarabine (2.5 μM) or Venetoclax (2.5 nM) for 24 hours. Cells were subsequently evaluated for viability using Annexin-V-FITC and DAPI, or 4′,6-diamidino-2-phenylindole, staining on a flow cytometer (FIGS. 1B and 2B).
as §1, with “Bendamustine (FIG. 7).” for “Fludarabine or Venetoclax (FIGS. 1A and 2A).”, “Bendamustine (15” for “either Fludarabine (2.5”, “μM)” for “μM) or Venetoclax (2.5 nM)”, “cytometer.” for “cytometer (FIGS. 1B and 2B).”
Approximately 20,000 wild-type bone marrow derived stroma cells were seeded into tissue culture wells and subsequently co-cultured with approximately 200,000 CLL patient cells. 24 hours thereafter, co-cultures were treated with 5 μM Ruboxistaurin for 1 hour at the indicated time-points prior to treatment with Venetoclax (FIG. 10A). Equivalent PKC-β-inhibitor exposure was maintained through removal and subsequent washout of Ruboxistaurin-treated co-cultures. Co-cultures were centrifuged at 500 g for 5 minutes, prior to removal of Ruboxistaurin containing media. Washout with cell culture media, was followed by an additional centrifugation at 500 g for 5 minutes, and the replacement of washout media with fresh media. Respective co-cultures were subsequently treated with Venetoclax (5 nM) for 24 hours. Cells were subsequently evaluated for viability using Annexin-V-FITC and DAPI, or 4′,6-diamidino-2-phenylindole, staining on a flow cytometer (FIG. 10B).

[2] = system: CLL patient cells co-cultured with wild-type bone marrow derived stroma cells; experiment: Continuous PKC inhibitor exposure begun before cytotoxic agent; viability of CLL/stroma co-cultures by Annexin-V-FITC and DAPI flow cytometry
Protocol: (§2) Approximately 20,000 wild-type bone marrow derived stroma cells were seeded into tissue culture wells and subsequently co-cultured with approximately 200,000 CLL patient cells. 24 hours thereafter, co-cultures were treated with 5 μM Enzastaurin at the indicated time-points prior to treatment with Venetoclax (FIG. 3A). Co-cultures were subsequently treated with Venetoclax (2.5 nM) for 24 hours. Cells were subsequently evaluated for viability using Annexin-V-FITC and DAPI staining on a flow cytometer (FIG. 3B).
as §2, with “Bendamustine” for “Venetoclax”, “8).” for “3A).”, “Bendamustine (15 μM)” for “Venetoclax (2.5 nM)”, “8).” for “3B).”
as §2, with “1” for “5”, “Midostaurin” for “Enzastaurin”, “Bendamustine” for “Venetoclax”, “8).” for “3A).”, “Bendamustine (15 μM)” for “Venetoclax (2.5 nM)”, “9).” for “3B).”

[3] = system: CLL patient cells co-cultured with wild-type bone marrow derived stroma cells; experiment: Synergism of PKC-β inhibitors with Venetoclax in CLL/stroma co-culture (Compusyn, Bliss Independence model); settings: PKC inhibitor 1.25, 2.5, 5 μM prior to Venetoclax 5, 10, 20 nM for 24 hours
Protocol: Heatmaps reflect assessment values noted for respective compound combinations, with error (*) indicated below. A scale of 50 to −50, is applied to values, with 50 representing maximal synergism and −50 being maximal antagonism. Non-significant values are by default coloured as neither synergistic nor antagonistic;
Approximately 20,000 wild-type bone marrow derived stroma cells were seeded into tissue culture wells and subsequently co-cultured with approximately 200,000 CLL patient cells. 24 hours thereafter, co-cultures were treated with Enzastaurin, Sotrastaurin or Midostaurin (1.25 μM, 2.5 μM, 5 μM) prior to treatment with Venetoclax. Co-cultures were subsequently treated with Venetoclax (5 nM, 10 nM, 20 nM) for 24 hours. Cells were subsequently evaluated for viability using flow cytometric analysis. Synergism was calculated using Compusyn Software (CRUK), within the Bliss Independence model (FIG. 5).

[4] = 5 μM Ruboxistaurin for 1 hour, then Venetoclax 5 nM for 24 hours
[5] = 5 μM Enzastaurin for 1 hour, then Bendamustine 15 μM for 24 hours
[6] = 5 μM Enzastaurin for 1 hour, then Fludarabine 2.5 μM for 24 hours
[7] = 5 μM Enzastaurin for 1 hour, then Venetoclax 2.5 nM for 24 hours

`CN(C)C[C@@H]1CCn2cc(c3ccccc32)C2=C(C(=O)NC2=O)c2cn(c3ccccc23)CCO1` [Ruboxistaurin] was tested, and the “pre-dosing time points showing increased efficacy of Venetoclax” value [1, 4] was 1 to 6 h and the “pre-dosing time points with most significant effects on efficacy of Venetoclax” value [1, 4] was 1 to 4 h.

`CO[C@@H]1[C@H](N(C)C(=O)c2ccccc2)C[C@H]2O[C@]1(C)n1c3ccccc3c3c4c(c5c6ccccc6n2c5c31)C(=O)NC4` [Midostaurin, N-((5R,7R,8R,9S)-8-methoxy-9-methyl-16-oxo-6,7,8,9,15,16-hexahydro-5H,14H-17-oxa-4b,9a,15-triaza-5,9-methanodibenzo[b,h]cyclonona[jkl]cyclopenta[e]-as-indacen-7-yl)-N-methylbenzamide] was tested, and the “pre-dosing time giving greatest efficacy of Bendamustine” value ([2]; continuous 1 μM Midostaurin beginning 1, 2, 3, 4, 6, 8 hours prior to Bendamustine 15 μM for 24 hours) was 3 to 8 h.

For `CN1CCN(c2nc(C3=C(c4c[nH]c5ccccc45)C(O)=NC3=O)c3ccccc3n2)CC1` [Sotrastaurin, 5-hydroxy-4-(1H-indol-3-yl)-3-[2-(4-methylpiperazin-1-yl)quinazolin-4-yl]-2H-pyrrol-2-one], the “combinatorial treatment effect with Venetoclax (synergism, Bliss model)” value [3] was “synergistic effects”.

For `Cn1cc(C2=C(c3cn(C4CCN(Cc5ccccn5)CC4)c4ccccc34)C(=O)NC2=O)c2ccccc21` [Enzastaurin, 3-(1-methylindol-3-yl)-4-[1-[1-(pyridin-2-ylmethyl)piperidin-4-yl]indol-3-yl]pyrrole-2,5-dione], the “pre-dosing timepoints showing increased efficacy of Bendamustine” value [1, 5] was 2 to 6 h, the “pre-dosing timepoints with largest effect on efficacy of Bendamustine” value [1, 5] was 3 to 6 h and the “pre-dosing time points showing increased efficacy of Fludarabine” value [1, 6] was 2 to 6 h. The “pre-dosing time points with largest effect on efficacy of Fludarabine” value [1, 6] was 3 to 6 h, the “pre-dosing time points showing increased efficacy of Venetoclax” value [1, 7] was 2 to 6 h and the “pre-dosing time points with largest effect on efficacy of Venetoclax” value [1, 7] was 3 to 6 h. For the same compound, the “pre-dosing time giving greatest efficacy of Bendamustine” value ([2]; continuous 5 μM Enzastaurin beginning 1, 2, 3, 4, 6, 8 hours prior to Bendamustine 15 μM for 24 hours) was 3 to 6 h, the “pre-dosing time giving greatest efficacy of Venetoclax” value ([2]; continuous 5 μM Enzastaurin beginning 1, 2, 3, 4, 6, 12 hours prior to Venetoclax 2.5 nM for 24 hours) was 3 to 6 h and the “combinatorial treatment effect with Venetoclax (synergism, Bliss model)” value [3] was “synergistic effects”.
